# pEC50: −log10 of the molar value.
# Molecular target: T1, CFTR (Homo sapiens, UniProt P13569, DEL508-508)
# T1 construct: endogenous in cells; host or cells: primary human bronchial epithelial cells from CF subjects (F508del/MF-HBE), differentiated at air-liquid interface
# Assay: HBE2 assay: Ussing chamber assay of CFTR-mediated short-circuit currents
# Type: cell-based
# Conditions: 3 μM corrector; F508del/MF-HBE cells; with 44 nM potentiator, 18-24 hours, 20% human serum
# In short: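 F508del/MF-HBE cultured >14 days at air-liquid interface, mounted in Ussing chambers; transepithelial short-circuit current recorded under voltage clamp (Vhold=0 mV) at 37 °C. CFTR-mediated ISC (μA/cm^2) taken as peak forskolin response relative to steady-state current after inhibition; corrector activity assessed this way.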
# T1 sequence (P13569 with tags, fused parts or gaps DEL508-508): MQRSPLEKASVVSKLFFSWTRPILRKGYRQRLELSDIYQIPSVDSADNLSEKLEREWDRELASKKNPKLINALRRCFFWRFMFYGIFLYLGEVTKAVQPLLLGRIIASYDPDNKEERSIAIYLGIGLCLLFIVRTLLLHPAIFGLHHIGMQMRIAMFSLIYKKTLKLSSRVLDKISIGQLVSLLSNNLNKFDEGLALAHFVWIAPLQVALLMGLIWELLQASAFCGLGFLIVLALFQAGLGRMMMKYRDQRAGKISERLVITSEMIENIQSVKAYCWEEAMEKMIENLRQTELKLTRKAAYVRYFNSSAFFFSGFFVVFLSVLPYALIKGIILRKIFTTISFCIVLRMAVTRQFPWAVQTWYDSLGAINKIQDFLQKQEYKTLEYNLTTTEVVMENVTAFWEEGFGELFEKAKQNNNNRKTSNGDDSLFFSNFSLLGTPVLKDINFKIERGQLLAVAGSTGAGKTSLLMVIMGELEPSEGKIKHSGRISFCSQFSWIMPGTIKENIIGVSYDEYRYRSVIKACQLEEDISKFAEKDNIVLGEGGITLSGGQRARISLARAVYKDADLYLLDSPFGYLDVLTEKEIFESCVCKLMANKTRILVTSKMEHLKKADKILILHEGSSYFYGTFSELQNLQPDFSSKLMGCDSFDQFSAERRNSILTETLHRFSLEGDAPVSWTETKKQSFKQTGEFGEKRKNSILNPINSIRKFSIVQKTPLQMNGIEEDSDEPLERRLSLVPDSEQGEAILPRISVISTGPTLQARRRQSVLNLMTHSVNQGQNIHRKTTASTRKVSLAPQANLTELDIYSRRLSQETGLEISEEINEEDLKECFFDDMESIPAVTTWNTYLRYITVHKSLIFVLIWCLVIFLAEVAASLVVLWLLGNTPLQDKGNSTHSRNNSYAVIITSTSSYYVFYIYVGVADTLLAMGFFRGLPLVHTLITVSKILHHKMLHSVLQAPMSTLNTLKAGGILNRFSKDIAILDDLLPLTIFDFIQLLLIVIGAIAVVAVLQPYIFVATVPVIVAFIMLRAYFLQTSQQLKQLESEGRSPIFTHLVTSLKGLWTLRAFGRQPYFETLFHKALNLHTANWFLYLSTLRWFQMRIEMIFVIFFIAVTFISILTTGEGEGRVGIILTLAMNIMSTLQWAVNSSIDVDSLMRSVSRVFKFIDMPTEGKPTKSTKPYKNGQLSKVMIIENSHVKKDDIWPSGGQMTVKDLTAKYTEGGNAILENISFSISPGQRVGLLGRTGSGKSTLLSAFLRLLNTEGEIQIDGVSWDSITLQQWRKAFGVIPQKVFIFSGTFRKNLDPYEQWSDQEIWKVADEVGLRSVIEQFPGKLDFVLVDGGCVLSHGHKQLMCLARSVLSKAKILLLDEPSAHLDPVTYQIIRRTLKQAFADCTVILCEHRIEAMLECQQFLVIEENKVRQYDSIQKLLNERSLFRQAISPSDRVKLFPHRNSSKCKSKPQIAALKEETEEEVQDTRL
row,HBE2 Activity at 3 μM (%),SMILES
1,+++ (+++ is >60+),Cc1cccc(C)c1-c1cc2nc(n1)NS(=O)(=O)c1cccc(c1)C(=O)N(Cc1cncc(N3CCO[C@@H](C)[C@H]3C)n1)[C@H](CC(C)(C)C)CO2 [Compound 1761]
2,+++ (+++ is >60+),CC[C@H]1CCCN1c1cncc(CN2C(=O)c3cccc(c3)S(=O)(=O)Nc3nc(cc(-c4c(C)cccc4C)n3)OC[C@H]2COC2CC2)n1 (stereo in doubt) [Compound 1890]
3,+++ (+++ is >60+),Cc1cccc(C)c1-c1cc2nc(n1)NS(=O)(=O)c1cccc(c1)C(=O)N(Cc1cncc(N3CC[C@H]4CC[C@H]43)n1)[C@H](CCC(C)(C)C)CO2 (stereo in doubt) [Compound 1855]
4,+++ (+++ is >60+),CC[C@@H]1CCN1c1cncc(CN2C(=O)c3cccc(c3)S(=O)(=O)Nc3nc(cc(-c4c(C)cccc4C)n3)OC[C@H]2CC(C)(C)C)n1 [Compound 1721]
5,+++ (+++ is >60+),Cc1cccc(C)c1-c1cc2nc(n1)NS(=O)(=O)c1cccc(c1)C(=O)N(Cc1cnc3cc(C(C)C)n(C)c3n1)[C@H](C[C@H]1CCCOC1)CO2 [Compound 1931]
6,+++ (+++ is >60+),Cc1cccc(C)c1-c1cc2nc(n1)NS(=O)(=O)c1cccc(c1)C(=O)N(Cc1cccc(N(C)C(C)C)n1)[C@H](CCC(C)(C)C)CO2 [Compound 1790]
7,+++ (+++ is >60+),Cc1cccc(C)c1-c1cc2nc(n1)NS(=O)(=O)c1cccc(c1)C(=O)N(Cc1cncc(N(C)C3CC(F)(F)C3)n1)[C@H](COC1CC1)CO2 [Compound 1905]
8,+++ (+++ is >60+),Cc1cccc(C)c1-c1cc2nc(n1)NS(=O)(=O)c1cccc(c1)C(=O)N(Cc1cncc(N(C)C3CC4CCC43)n1)[C@H](CC(C)(C)C)CO2 (stereo partly shown) [Compound 1784]
9,+++ (+++ is >60+),Cc1cccc(C)c1-c1cc2nc(n1)NS(=O)(=O)c1cccc(c1)C(=O)N(Cc1cncc(N3CC[C@H]3C)n1)[C@H](COC1CC1)CO2 [Compound 1918]
10,+++ (+++ is >60+),COC[C@@H](C)N(C)c1cncc(CN2C(=O)c3cccc(c3)S(=O)(=O)Nc3nc(cc(-c4c(C)cccc4C)n3)OC[C@H]2CCC(C)(C)C)n1 [Compound 1851]
11,+++ (+++ is >60+),Cc1cccc(C)c1-c1cc2nc(n1)NS(=O)(=O)c1cccc(c1)C(=O)N(Cc1cncc(N(C)[C@H]3C[C@@H](C)C3)n1)[C@H](CCC(C)(C)C)CO2 [Compound 1884]
12,+++ (+++ is >60+),Cc1cccc(C)c1-c1cc2nc(n1)NS(=O)(=O)c1cccc(c1)C(=O)N(Cc1cnc3cc(C(C)C)n(C)c3n1)[C@H](CC1CCC1)CO2 [Compound 1830]
13,+++ (+++ is >60+),Cc1cccc(C)c1-c1cc2nc(n1)NS(=O)(=O)c1cccc(c1)C(=O)N(Cc1cncc(N(C)[C@H]3CC[C@@H]3C)n1)[C@H](CC(C)(C)C)CO2 (stereo in doubt) [Compound 1773]
14,+++ (+++ is >60+),Cc1cccc(C)c1-c1cc2nc(n1)NS(=O)(=O)c1cccc(n1)C(=O)N(Cc1cncc(N(C)C3CCC3)n1)[C@H](CC(C)(C)C)CO2 [Compound 1832]
15,+++ (+++ is >60+),CCN(c1cncc(CN2C(=O)c3cccc(c3)S(=O)(=O)Nc3nc(cc(-c4c(C)cccc4C)n3)OC[C@H]2CCC(C)(C)C)n1)C(C)C [Compound 1850]
16,+++ (+++ is >60+),Cc1cccc(C)c1-c1cc2nc(n1)NS(=O)(=O)c1cccc(c1)C(=O)N(Cc1cncc(N(C)[C@H]3C[C@@H](F)C3)n1)[C@H](CCC1CC1)CO2 [Compound 1915]
17,+++ (+++ is >60+),COCC1CCN1c1cncc(CN2C(=O)c3cccc(c3)S(=O)(=O)Nc3nc(cc(-c4c(C)cccc4C)n3)OC[C@H]2COC2CC2)n1 (stereo in doubt) [Compound 1894]
18,+++ (+++ is >60+),"Cc1cccc(C)c1-c1cc2nc(n1)NS(=O)(=O)c1cccc(c1)C(=O)N(Cc1cncc(N3CCC[C@H]3C(C)C)n1)[C@H](COC1CC1)CO2 [Compound 1341, (11R)-11-(Cyclopropoxymethyl)-6-(2,6-dimethylphenyl)-12-[[6-[(2S)-2-isopropylpyrrolidin-1-yl]pyrazin-2-yl]methyl]-2,2-dioxo-9-oxa-2^6-thia-3,5,12,19-tetrazatricyclo[12.3.1.14,8]nonadeca-1(18),4(19),5,7,14,16-hexaen-13-one]"
19,+++ (+++ is >60+),Cc1cccc(C)c1-c1cc2nc(n1)NS(=O)(=O)c1cccc(c1)C(=O)N(Cc1cncc(N(C)C3CC(F)(F)C3)n1)[C@H](CCC(C)(C)C)CO2 [Compound 1815]
20,+++ (+++ is >60+),CCN(c1cncc(CN2C(=O)c3cccc(c3)S(=O)(=O)Nc3nc(cc(-c4c(C)cccc4C)n3)OC[C@H]2CCC(C)(C)C)n1)C1CCC1 [Compound 1808]
21,+++ (+++ is >60+),Cc1cccc(C)c1-c1cc2nc(n1)NS(=O)(=O)c1cccc(c1)C(=O)N(Cc1cncc(N3CCCC[C@H]3C)n1)[C@H](CC(C)(C)F)CO2 [Compound 1805]
22,+++ (+++ is >60+),CC[C@H]1CCN1c1cncc(CN2C(=O)c3cccc(c3)S(=O)(=O)Nc3nc(cc(-c4c(C)cccc4C)n3)OC[C@H]2CCC(C)(C)C)n1 [Compound 1864]

# Same assay, conditions: 3 μM; F508del/MF-HBE cells; with 44 nM potentiator; 18-24 hours; 20% human serum
row,HBE2 Activity at 3 μM (%),SMILES
1,+++ (+++ is >60+),CO[C@H]1C[C@H](CN(C)c2cncc(CN3C(=O)c4cccc(c4)S(=O)(=O)Nc4nc(cc(-c5c(C)cccc5C)n4)OC[C@H]3CC(C)(C)C)n2)C1 (stereo in doubt) [Compound 1632]
2,+++ (+++ is >60+),COC(=O)N(C)c1cccc(CN2C(=O)c3cccc(c3)S(=O)(=O)Nc3nc(cc(-c4c(C)cccc4C)n3)OC[C@H]2CC(C)(C)C)n1 [Compound 1584]
3,+++ (+++ is >60+),Cc1cccc(C)c1-c1cc2nc(n1)NS(=O)(=O)c1cccc(c1)C(=O)N(Cc1cncc(N(C)[C@@H]3CC4COCC43)n1)[C@H](CC(C)(C)C)CO2 (stereo in doubt) [Compound 1676]
4,+++ (+++ is >60+),Cc1cccc(C)c1-c1cc2nc(n1)NS(=O)(=O)c1cccc(c1)C(=O)N(Cc1ncc(N3CCC(F)(F)C3)cn1)[C@H](CC1(C)CC1)CO2 [Compound 1548]
5,+++ (+++ is >60+),Cc1cccc(C)c1-c1cc2nc(n1)NS(=O)(=O)c1cccc(c1)C(=O)N(Cc1ccn([C@H](C)C3CCOCC3)n1)[C@H](CC(C)(C)C)CO2 (stereo in doubt) [Compound 1456]
6,+++ (+++ is >60+),CO[C@H]1C[C@H](CN(C)c2cncc(CN3C(=O)c4cccc(c4)S(=O)(=O)Nc4nc(cc(-c5c(C)cccc5C)n4)OC[C@H]3CC(C)(C)C)n2)C1 [Compound 1631]
7,+++ (+++ is >60+),Cc1cccc(C)c1-c1cc2nc(n1)NS(=O)(=O)c1cccc(c1)C(=O)N(Cc1cccc([C@@H](C)N3CCCC3)n1)[C@H](CC(C)(C)C)CO2 [Compound 1588]
8,+++ (+++ is >60+),"Cc1cccc(C)c1-c1cc2nc(n1)NS(=O)(=O)c1cccc(c1)C(=O)N(Cc1cncc(N(C)C3CCC3)n1)[C@H](C1CC3(CCC3)C1)CO2 (single isomer, unassigned) [Compound 1320, 12-[[6-[Cyclobutyl(methyl)amino]pyrazin-2-yl]methyl]-6-(2,6-dimethylphenyl)-2,2-dioxo-11-spiro[3.3]heptan-2-yl-9-oxa-2λ^6-thia-3,5,12,19-tetrazatricyclo[12.3.1.14,8]nonadeca-1(18),4(19),5,7,14,16-hexaen-13-one]"
9,+++ (+++ is >60+),Cc1cccc(C)c1-c1cc2nc(n1)NS(=O)(=O)c1cccc(c1)C(=O)N(Cc1cncc(N3C(=O)CC[C@H]3C)n1)[C@H](CC(C)(C)C)CO2 [Compound 1674]
10,+++ (+++ is >60+),Cc1cccc(C)c1-c1cc2nc(n1)NS(=O)(=O)c1cccc(c1)C(=O)N(Cc1cccc(N(C)C3CCC3)n1)[C@H](CC(C)(C)C)CO2 [Compound 1578]
11,++ (++ is 30-60%),Cc1cccc(C)c1-c1cc2nc(n1)NS(=O)(=O)c1cccc(c1)C(=O)N(Cc1cccc([C@@H](C)N3CCCC3)n1)[C@H](CC(C)(C)C)CO2 [Compound 1589]
12,+++ (+++ is >60+),Cc1cccc(C)c1-c1cc2nc(n1)NS(=O)(=O)c1cccc(c1)C(=O)N(Cc1cncc(N3CCC[C@H]4COC[C@H]43)n1)[C@H](CC(C)(C)C)CO2 (stereo in doubt) [Compound 1679]
13,+++ (+++ is >60+),Cc1cccc(C)c1-c1cc2nc(n1)NS(=O)(=O)c1cccc(c1)C(=O)N(Cc1ccc(N3CC(C)(C)C3)cn1)[C@H](CC(C)(C)C)CO2 [Compound 1655]
14,+++ (+++ is >60+),Cc1cccc(C)c1-c1cc2nc(n1)NS(=O)(=O)c1cccc(c1)C(=O)N(Cc1ncc(OC(C)C)cn1)[C@H](CC1CCC1)[C@@H](C)O2 [Compound 1568]
15,+ (+ is <300)),Cc1cccc(C)c1-c1cc2nc(n1)NS(=O)(=O)c1cccc(c1)C(=O)N(Cc1ncc(OC(C)C)cn1)[C@H](C(C)C1CC1)CO2 (stereo in doubt) [Compound 1557]
16,+++ (+++ is >60+),Cc1cccc(C)c1-c1cc2nc(n1)NS(=O)(=O)c1cccc(c1)C(=O)N(Cc1cccc(N3CC[C@H]3C)n1)[C@H](CC(C)(C)C)CO2 [Compound 1551]

# Same assay, conditions: F508del/MF-HBE cells; with 44 nM potentiator; 18-24 hours; 20% human serum
row,pEC50,SMILES
1,> 6.00,CO[C@H]1C[C@H](CN(C)c2cncc(CN3C(=O)c4cccc(c4)S(=O)(=O)Nc4nc(cc(-c5c(C)cccc5C)n4)OC[C@H]3CC(C)(C)C)n2)C1 (stereo in doubt) [Compound 1632]
2,> 6.00,"Cc1cccc(C)c1-c1cc2nc(n1)NS(=O)(=O)c1cccc(c1)C(=O)N(Cc1cncc(N(C)C3CCC3)n1)[C@H](C1CC3(CCC3)C1)CO2 (single isomer, unassigned) [Compound 1320, 12-[[6-[Cyclobutyl(methyl)amino]pyrazin-2-yl]methyl]-6-(2,6-dimethylphenyl)-2,2-dioxo-11-spiro[3.3]heptan-2-yl-9-oxa-2λ^6-thia-3,5,12,19-tetrazatricyclo[12.3.1.14,8]nonadeca-1(18),4(19),5,7,14,16-hexaen-13-one]"
3,> 6.00,Cc1cccc(C)c1-c1cc2nc(n1)NS(=O)(=O)c1cccc(c1)C(=O)N(Cc1cccc(N(C)C3CCC3)n1)[C@H](CC(C)(C)C)CO2 [Compound 1578]
4,> 6.00,Cc1cccc(C)c1-c1cc2nc(n1)NS(=O)(=O)c1cccc(c1)C(=O)N(Cc1cncc(N(C)C3CC(F)(F)C3)n1)[C@H](CC(C)(C)C)CO2 [Compound 1602]

# Same assay, conditions: F508del/MF-HBE cells; with 44 nM potentiator; 18-24 hours; 20% human serum; read-out: HBE2 Max activity (%)
row,Emax,SMILES
1,> 60%,CO[C@H]1C[C@H](CN(C)c2cncc(CN3C(=O)c4cccc(c4)S(=O)(=O)Nc4nc(cc(-c5c(C)cccc5C)n4)OC[C@H]3CC(C)(C)C)n2)C1 (stereo in doubt) [Compound 1632]
2,> 60%,"Cc1cccc(C)c1-c1cc2nc(n1)NS(=O)(=O)c1cccc(c1)C(=O)N(Cc1cncc(N(C)C3CCC3)n1)[C@H](C1CC3(CCC3)C1)CO2 (single isomer, unassigned) [Compound 1320, 12-[[6-[Cyclobutyl(methyl)amino]pyrazin-2-yl]methyl]-6-(2,6-dimethylphenyl)-2,2-dioxo-11-spiro[3.3]heptan-2-yl-9-oxa-2λ^6-thia-3,5,12,19-tetrazatricyclo[12.3.1.14,8]nonadeca-1(18),4(19),5,7,14,16-hexaen-13-one]"
3,> 60%,Cc1cccc(C)c1-c1cc2nc(n1)NS(=O)(=O)c1cccc(c1)C(=O)N(Cc1cccc(N(C)C3CCC3)n1)[C@H](CC(C)(C)C)CO2 [Compound 1578]
4,> 60%,Cc1cccc(C)c1-c1cc2nc(n1)NS(=O)(=O)c1cccc(c1)C(=O)N(Cc1cncc(N(C)C3CC(F)(F)C3)n1)[C@H](CC(C)(C)C)CO2 [Compound 1602]
